Where a SMILES comes first, the peptide text is derived from it. [ ]: non-standard residue; d: D form. The star is where a group is joined. Myristoyl = CCCCCCCCCCCCCC(=O)*; 12Ado = NCCCCCCCCCCCC(=O)O
Key:
E. coli = assay type: cell-based, Escherichia coli; settings: 48 h
Protocol: (§1) Staphylococci, Bacilli, Escherichia, Pseudomonas, Acinetobacter, Salmonella and Klebsiella species were grown in Luria Bertani broth (LB; 5 gr/l NaCl, 5 gr/l yeast extract, 10 gr/l tryptone). Enterococci and E. coli ML-35p were grown in Tryptic Soy Broth (TSB). Listeria and Streptococci were grown in Brain Heart Infusion (BHI). All bacteria were grown over-night at 37 °C with shaking. S. mutans 35668 plated on BHI agar for enumeration was grown for 48 hr. S. mutans UA159 was grown in 5% CO2 enriched atmosphere. Fusobacterium and Porphyromonas were grown in Wilkins-Chalgren growth medium and an anaerobic atmosphere.
Minimal inhibitory concentration (MIC) was determined using the microdilution assay. […] O.D. at 620 nm was measured (Synergy HT, BioTek Instruments, Winooski, VT, USA), and the MIC was determined as the lowest concentration for which no increase in O.D. was detected.

E. coli ML-35p = assay: Outer and cytoplasmic membrane permeabilization (nitrocefin, ONPG, EtBr); assay type: cell-based, Escherichia coli; settings: ONPG and ethidium bromide (CM), 30 min, 37 °C
Protocol: Cytoplasmic membrane permeation to ethidium bromide (EtBr) was evaluated as follows: Mid-log-phase bacteria at 1 × 10^8 CFU/ml were centrifuged for 5 min at 15,000 g. Pellet was washed twice with PBS containing 0.5% glucose (pH = 7.4), suspended in the same buffer and incubated for 10 min at 37 °C with shaking. 180 µl of the bacterial suspension were mixed in a 96-well plate with 25 µl of the tested compound and EtBr (EtBr final concentration = 1 µg/ml) and fluorescence was recorded immediately (excitation: 535 nm, emission: 590 nm) for up to 30 min at 37 °C with shaking (Synergy HT, BioTek Instruments, Winooski, VT, USA).
Outer and cytoplasmic membrane permeation in Gram-negative bacteria was assessed using the engineered E. coli ML-35p by monitoring the chromogenic hydrolysis of two indicators: ortho-nitrophenyl-β-galactoside (ONPG) and nitrocefin. Mid-log-phase E. coli ML-35p were centrifuged for 5 min at 15,000 g and the supernatant was removed. Pellet was washed three times with sodium phosphate buffer (SPB; 10 mM NaH2PO4, pH = 7) and suspended in the same buffer (O.D. at 620 nm = 1). Bacteria were then 10-fold diluted into SPB containing 3% TSB. […] Hydrolysis of ONPG and nitrocefin was monitored immediately by recording the absorbance at 420 nm and 486 nm respectively, for 30 min at 37 °C with shaking (Synergy HT, BioTek Instruments, Winooski, VT, USA).

S. aureus 29213 = assay type: cell-based, Staphylococcus aureus
Protocol: (§2) Minimal inhibitory concentration (MIC) was determined using the microdilution assay. Mid-log-phase bacteria at 5 × 10^5 CFU/ml were incubated in a 96-well plate with serial two-fold dilutions of the tested compound for 18–24 hr at 37 °C (final volume of 200 µl). O.D. at 620 nm was measured (Synergy HT, BioTek Instruments, Winooski, VT, USA), and the MIC was determined as the lowest concentration for which no increase in O.D. was detected.

Klebsiella = assay type: cell-based
Description: (§3) Gram-negative bacteria tested were: ATCC strains Escherichia coli 25922, 43894, Pseudomonas aeruginosa 27853, 9027, Acinetobacter baumannii 19606, A. caloaceticus 31299, Salmonella Typhimurium 14028, Fusobacterium nucleatum 23726, Porphyromonas gingivalis 53977, clinical isolates E. coli 14182, 14384, U-16327, U-16329, P. aeruginosa 1278, Klebsiella pneumoniae 1287, K2–224, C2, A. baumannii 1279, 1280, 1281, F. nucleatum PK 1594, the engineered E. coli ML-35p and the isogenic K-12 pair AG100, AG100a (ΔacrAB). Dental related bacteria (generous gift of Prof. Doron Steinberg and Gilad Bachrach from the Hebrew University of Jerusalem) appear in bold characters.
as §1, §2

[1] = tested on: Gram-negative bacteria (GNB); assay type: cell-based; settings: 24 GNB strains (seven species)
Description: as §3, §1, §2

Pseudomonas = assay type: cell-based; settings: 3 strains; microdilution, LB, 18–24 hr, 37 °C; average of at least 2 independent experiments in duplicate
Description: as §3, §1, §2

S. mutans ATCC 35668 = assay: Bactericidal kinetics (time-kill); assay type: cell-based, Streptococcus mutans
Protocol: Bactericidal kinetics was assessed by incubating 5 × 10^5 CFU/ml of mid-log-phase bacteria with the OAK for 3 hr at 37 °C with shaking. Aliquots were taken at t = 0, 0.5, 1, 2 and 3 hr, subjected to serial 10-fold dilutions in saline (NaCl = 0.85%) and plated for enumeration after 24–48 hr incubation at 37 °C.

[2] = Hydrophobicity by C18 RP-HPLC elution; assay type: physicochemical; settings: chromatographic, RP-HPLC C18 (Vydac), flow 2 ml/min, linear acetonitrile gradient 1%/min
Protocol: OAKs were synthesized in-house (433 A Peptide Synthesizer; Applied Biosystems, Foster City, CA, USA) by the solid-phase method using 9-fluorenylmethyloxycarbonyl (Fmoc) active-ester chemistry on 4-methylbenzhydrylamine (MBHA) resin. OAKs were then deprotected and cleaved from the resin using trifluoroacetic acid:H2O (95:5) and purified to >95% chromatographic homogeneity by reverse phase high performance liquid chromatography (RP-HPLC) using C18 column (Vydac), a flow rate of 2 ml/min and a linear acetonitrile gradient of 1%/min (Alliance; Waters, Milford, MA, USA). Peaks identity was verified by mass-spectrometry (Xevo G2 Tof; Waters, Milford, MA, USA). Purified OAKs were then lyophilized and kept as dry powder at −20 °C.

## CCCCCCCCCCCCCC(=O)N[C@@H](CCCCN)C(=O)N[C@@H](CCCCN)C(=O)NCCCCCCCCCCCC(=O)N[C@@H](CCCCN)C(N)=O [C14KKc12K] (Myristoyl-KK[12Ado]K-NH2)
E. coli
  MIC E.c.: 3.12 µM
E. coli ML-35p
  concentration (MIC value) at which both OM and CM were permeabilized: 3 µM
S. aureus 29213
  MIC: 3 µM
Klebsiella
  MIC range: 3.12 to 12.5 µM
[1]
  MIC50: 6 µM
Pseudomonas
  MIC range: 6.25 to 12.5 µM
S. mutans ATCC 35668; time-kill kinetics in BHI
  bactericidal concentration: 1.56 µM
S. mutans ATCC 35668; within 2 hours exposure to 1.56 µM, 5 × 10^5 CFU/ml, 37 °C
  reduction of viability: ~ 2 log units
[2]
  H, hydrophobicity, defined as % acetonitrile eluent in C18 HPLC column: 54%
